Reference: patent US20050137185A1, “Combinations of drugs for the treatment of neoplasms” (priority 2003, published 2005)
Like-named read-outs stand apart in the source and are kept apart here.

Tested on: HCT116 cells
Assay: Anti-proliferation assay (Alamar Blue metabolism)
Assay type: cell-based
Conditions: Homo sapiens, read-out: Percent inhibition of Alamar Blue Metabolism in HCT116 cells; for inhibition at 5 µM: HCT-116, chlorpromazine 5 μM; for inhibition at 10 µM: HCT-116, chlorpromazine 10 μM; for inhibition at 40 µM: HCT-116, chlorpromazine 40 μM
Description: Stock solutions (1000×) of each compound were prepared in DMSO and stored at −20° C. Master stock plates of 2-fold or 4-fold serial dilutions of individual compounds were prepared in 384-well plates. Combination matrices of test compounds were generated from these master stock plates by dilution into growth media described above. […] The combination matrices were used immediately and discarded.
The anti-proliferation assays were performed in 384-well plates. […] Cells were diluted in culture media such that 1500 cells were delivered in 40 μL of media into each assay well. […] 10× stock solutions (4.5 μL) from the combination matrices were added to 40 μL of culture media in assay wells. Assay plates were incubated for 72-80 hours at 37±0.5° C. with 5% CO2. […] Alamar Blue metabolism was quantified by the amount of fluorescence intensity 3.5-5.0 hours after addition. Quantification, using an LJL Analyst AD reader (LJL Biosystems), was taken in the middle of the well with high attenuation, a 100 msec read time, an excitation filter at 530 nm, and an emission filter at 575 nm. For some experiments, quantification was performed using a Wallac Victor^2 reader. Measurements were taken at the top of the well with stabilized energy lamp control; a 100 msec read time, an excitation filter at 530 nm, and an emission filter at 590 nm.

CN(C)CCCN1c2ccccc2Sc2ccc(Cl)cc21 [Chlorpromazine, chlorpromazine]
inhibition at 7 µM (HCT-116, 72 h, chlorpromazine 7 μM, tyrphostin 1486 0 μM): -18.6% | inhibition at 14 µM (HCT-116, 72 h, chlorpromazine 14 μM, tyrphostin 1486 0 μM): -12.5% | inhibition at 28 µM (HCT-116, 72 h, chlorpromazine 28 μM, tyrphostin 1486 0 μM): 62.2% | inhibition at 56 µM (HCT-116, 72 h, chlorpromazine 56 μM, tyrphostin 1486 0 μM): 85.6% | inhibition at […] (HCT-116, 72 h, chlorpromazine […], tyrphostin 1486 0 μM): 95.9% | inhibition at 5 µM (dacarbazine 0 μM): 17% | inhibition at 5 µM (docetaxel 0 μM): 2.8% | inhibition at 5 µM (floxuridine 0 μM): 3.53% | inhibition at 5 µM (hydroxycamptothecin 0 μM): 24% | inhibition at 5 µM (leucovorin 0 μM): -4.39% | inhibition at 5 µM (paclitaxel 0 μM): -11.8% | inhibition at 5 µM (vinblastine 0 μM): -20% | inhibition at 5 µM (vinorelbine 0 μM): -20% | inhibition at 10 µM (dacarbazine 0 μM): 54.6% | inhibition at 10 µM (docetaxel 0 μM): 84.8% | inhibition at 10 µM (floxuridine 0 μM): 65.4% | inhibition at 10 µM (hydroxycamptothecin 0 μM): 84% | inhibition at 10 µM (leucovorin 0 μM): 3.27% | inhibition at 10 µM (paclitaxel 0 μM): 56.2% | inhibition at 10 µM (vinblastine 0 μM): 50.8% | inhibition at 10 µM (vinorelbine 0 μM): 60% | inhibition at 20 µM (HCT-116, chlorpromazine 20 μM, docetaxel 0 μM): 91.9% | inhibition at 20 µM (HCT-116, chlorpromazine 20 μM, floxuridine 0 μM): 88.5% | inhibition at 20 µM (HCT-116, chlorpromazine 20 μM, hydroxycamptothecin 0 μM): 88.2% | inhibition at 20 µM (HCT-116, chlorpromazine 20 μM, leucovorin 0 μM): 80.9% | inhibition at 20 µM (HCT-116, chlorpromazine 20 μM, paclitaxel 0 μM): 87% | inhibition at 20 µM (HCT-116, chlorpromazine 20 μM, vinblastine 0 μM): 85.8% | inhibition at 20 µM (HCT-116, chlorpromazine 20 μM, vinorelbine 0 μM): 88.4% | inhibition at 40 µM (dacarbazine 0 μM): 95.8% | inhibition at 40 µM (docetaxel 0 μM): 95.7% | inhibition at 40 µM (floxuridine 0 μM): 95.7% | inhibition at 40 µM (hydroxycamptothecin 0 μM): 95.8% | inhibition at 40 µM (leucovorin 0 μM): 95.6% | inhibition at 40 µM (paclitaxel 0 μM): 95.7% | inhibition at 40 µM (vinblastine 0 μM): 94.5% | inhibition at 40 µM (vinorelbine 0 μM): 94.7% | inhibition at […] (HCT-116, chlorpromazine […], dacarbazine 0 μM): 4.03% | inhibition at […] (HCT-116, chlorpromazine […], docetaxel 0 μM): -12.2% | inhibition at […] (HCT-116, chlorpromazine […], floxuridine 0 μM): -0.0804% | inhibition at […] (HCT-116, chlorpromazine […], hydroxycamptothecin 0 μM): -8.14% | inhibition at […] (HCT-116, chlorpromazine […], leucovorin 0 μM): -0.0253% | inhibition at […] (HCT-116, chlorpromazine […], paclitaxel 0 μM): 10.1% | inhibition at […] (HCT-116, chlorpromazine […], vinblastine 0 μM): -20% | inhibition at […] (HCT-116, chlorpromazine […], vinorelbine 0 μM): -0.591%

CN(C)/N=N/c1[nH]cnc1C(N)=O [Dacarbazine, dacarbazine]
inhibition at 14 µM (HCT-116, chlorpromazine 0 μM, dacarbazine 14 μM): 42.6% | inhibition at 27 µM (HCT-116, chlorpromazine 0 μM, dacarbazine 27 μM): 64.6% | inhibition at 55 µM (HCT-116, chlorpromazine 0 μM, dacarbazine 55 μM): 74.2%

Nc1nc2c(c(=O)[nH]1)N(C=O)C(CNc1ccc(C(=O)N[C@@H](CCC(=O)O)C(=O)O)cc1)CN2 (some centres unmarked) [Leucovorin, leucovorin]
inhibition at 20 µM (HCT-116, chlorpromazine 0 μM, leucovorin 20 μM): -11.5%

COc1cc2ncnc(Nc3cccc(Cl)c3)c2cc1OC [Tyrphostin 1486, Tyrphostin AG1478]
inhibition at 13 µM (HCT-116, chlorpromazine 0 μM, tyrphostin 1486 13 μM): 78.7% | inhibition at 26 µM (HCT-116, chlorpromazine 0 μM, tyrphostin 1486 26 μM): 81.4% | inhibition at 51 µM (HCT-116, chlorpromazine 0 μM, tyrphostin 1486 51 μM): 81.3%

CCC1=C[C@@H]2CN(C1)Cc1c([nH]c3ccccc13)[C@@](C(=O)OC)(c1cc3c(cc1OC)N(C)[C@H]1[C@@](O)(C(=O)OC)[C@H](OC(C)=O)[C@]4(CC)C=CCN5CC[C@]31[C@@H]54)C2 [Vinorelbine, vinorelbine]
inhibition at 0.004 µM (HCT-116, chlorpromazine 0 μM, vinorelbine 0.004 μM): -8.91% | inhibition at 0.008 µM (HCT-116, chlorpromazine 0 μM, vinorelbine 0.008 μM): 42.1%
